Assay results as given in patent US12612416B2, “Modulators of cystic fibrosis transmembrane conductance regulator” (VERTEX PHARMACEUTICALS INCORPORATED, priority 2020, dated 2026).
Read-outs that look alike come from different tables or passages of the source.

Legend:
[1] = 13-membered ring
[2] = target: CFTR-mediated chloride transport in human intestinal epithelial enteroid cells (Homo sapiens, UniProt P13569); experiment: Membrane potential dye, Enteroid Assay B; format: cell-based; conditions: for Ent. B Max Activity: % of chloride transport of triple combination control: 1 μM (14S)-8-[3-(2-{Dispiro[2.0.2.1]heptan-7-yl}ethoxy)-1H-pyrazol-1-yl]-12,12-dimethyl-...-2,2,4-trione, 3 μM tezacaftor, 300 nM acute ivacaftor; for EC50: enteroid cells, 18-24 hours incubation, acute 10 μM forskolin and 300 nM ivacaftor, read-out: Ent. B EC50
Chain of CFTR-mediated chloride transport in human intestinal epithelial enteroid cells (P13569 with tags, fused parts or gaps DEL508-508): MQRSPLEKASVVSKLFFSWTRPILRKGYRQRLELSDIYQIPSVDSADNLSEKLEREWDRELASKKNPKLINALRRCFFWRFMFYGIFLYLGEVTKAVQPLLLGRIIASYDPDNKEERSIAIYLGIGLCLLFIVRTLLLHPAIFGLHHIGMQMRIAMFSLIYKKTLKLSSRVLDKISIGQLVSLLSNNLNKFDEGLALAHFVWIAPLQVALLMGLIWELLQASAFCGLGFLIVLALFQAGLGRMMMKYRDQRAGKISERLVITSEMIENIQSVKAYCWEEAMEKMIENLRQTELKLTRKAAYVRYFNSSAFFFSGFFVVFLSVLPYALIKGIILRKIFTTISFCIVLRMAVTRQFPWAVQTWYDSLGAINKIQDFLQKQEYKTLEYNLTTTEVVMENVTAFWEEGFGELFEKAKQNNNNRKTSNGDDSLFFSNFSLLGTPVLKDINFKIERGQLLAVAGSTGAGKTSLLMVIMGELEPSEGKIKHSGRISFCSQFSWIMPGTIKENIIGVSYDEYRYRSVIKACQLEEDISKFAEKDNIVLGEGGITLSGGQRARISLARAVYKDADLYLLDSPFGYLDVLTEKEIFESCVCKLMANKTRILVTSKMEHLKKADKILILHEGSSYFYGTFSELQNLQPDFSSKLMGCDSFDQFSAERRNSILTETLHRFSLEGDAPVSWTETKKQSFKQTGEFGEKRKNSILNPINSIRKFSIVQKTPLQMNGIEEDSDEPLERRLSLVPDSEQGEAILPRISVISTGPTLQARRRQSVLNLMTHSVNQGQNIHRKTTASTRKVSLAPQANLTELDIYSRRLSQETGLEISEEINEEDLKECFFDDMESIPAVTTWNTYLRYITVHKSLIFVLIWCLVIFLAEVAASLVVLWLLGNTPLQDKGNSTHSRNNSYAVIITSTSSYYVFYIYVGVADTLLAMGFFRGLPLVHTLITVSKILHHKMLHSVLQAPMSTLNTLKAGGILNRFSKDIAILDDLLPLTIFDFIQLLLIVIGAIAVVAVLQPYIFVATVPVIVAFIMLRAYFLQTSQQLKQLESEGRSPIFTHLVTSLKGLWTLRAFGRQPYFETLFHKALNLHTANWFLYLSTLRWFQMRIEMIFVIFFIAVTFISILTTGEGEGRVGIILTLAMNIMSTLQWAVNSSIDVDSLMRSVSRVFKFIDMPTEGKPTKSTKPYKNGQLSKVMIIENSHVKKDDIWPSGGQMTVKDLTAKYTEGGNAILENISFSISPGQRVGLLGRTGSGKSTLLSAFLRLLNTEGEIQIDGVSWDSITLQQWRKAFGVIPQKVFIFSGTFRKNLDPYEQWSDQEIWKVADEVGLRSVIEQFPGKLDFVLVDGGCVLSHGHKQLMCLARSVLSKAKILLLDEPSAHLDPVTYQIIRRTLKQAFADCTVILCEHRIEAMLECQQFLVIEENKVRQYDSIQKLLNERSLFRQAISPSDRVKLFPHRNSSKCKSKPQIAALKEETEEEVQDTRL
Method: Base medium (ADF+++) consisted of Advanced DMEM/Ham's F12, 2 mM Glutamax, 10 mM HEPES, […] penicillin/streptomycin.
Intestinal enteroid maintenance medium (IEMM) consisted of ADF+++, 1×B27 supplement, 1×N2 supplement, 1.25 mM N-acetyl cysteine, 10 mM Nicotinamide, 50 ng/mL hEGF, 10 nM Gastrin, 1 μg/mL hR-spondin-1, 100 ng/mL hNoggin, TGF-b type 1 inhibitor A-83-01, 100 μg/mL Primocin, 10 μM P38 MAPK inhibitor SB202190.
Bath 1 Buffer consisted of 1 mM MgCl2, 160 mM NaCl, 4.5 mM KCl, 10 mM HEPES, 10 mM Glucose, 2 mM CaCl2).
Chloride Free Buffer consisted of 1 mM Magnesium Gluconate, 2 mM Calcium Gluconate, 4.5 mM Potassium Gluconate, 160 mM Sodium Gluconate, 10 mM HEPES, 10 mM Glucose.
BathI Dye Solution consisted of Bath 1 Buffer, 0.04% Pluronic F127, 20 μM Methyl Oxonol, 30 μM CaCCinh-A01, 30 μM Chicago Sky Blue.
Chloride Free Dye Solution consisted of Chloride Free Buffer, 0.04% Pluronic F127, 20 μM Methyl Oxonol, 30 μM CaCCinh-A01, 30 μM Chicago Sky Blue.
Chloride Free Dye Stimulation Solution consisted of Chloride Free Dye Solution, 10 μM forskolin, 100 μM IBMX, and 300 nM Compound III.
Human intestinal epithelial enteroid cells were obtained from the Hubrecht Institute for Developmental Biology and Stem Cell Research, Utrecht, The Netherlands and expanded in T-Flasks as previously described (Dekkers J F, Wiegerinck C L, de Jonge H R, Bronsveld I, Janssens H M, de Winter-de Groot K M, Brandsma A M, de Jong N W M, Bijvelds M J C, Scholte B J, Nieuwenhuis E E S, van den Brink S, Clevers H, van der Ent C K, Middendorp S and M Beekman J M. A functional CFTR assay using primary cystic fibrosis intestinal organoids. Nat Med. 2013 July; 19(7):939-45.).
Cells were recovered in cell recovery solution, collected by centrifugation at 650 rpm for 5 minutes at 4° C., resuspended in TrypLE and incubated for 5 minutes at 37° C. Cells were then collected by centrifugation at 650 rpm for 5 minutes at 4° C. and resuspended in IEMM containing 10 μM ROCK inhibitor (RI). The cell suspension was passed through a 40 μm cell strainer and resuspended at 1×10^6 cells/mL in IEMM containing 10 μM RI. Cells were seeded at 5000 cells/well into multi-well plates and incubated for overnight at 37° C., 95% humidity and 5% CO2 prior to assay.
Enteroid cells were incubated with test compound in IEMM for 18-24 hours at 37° C., 95% humidity, and 5% C02. […] Briefly, cells were washed 5 times in Bath 1 Buffer. Bath 1 Dye Solution was added and the cells were incubated for 25 minutes at room temperature. Following dye incubation, cells were washed 3 times in Chloride Free Dye Solution. Chloride transport was initiated by addition of Chloride Free Dye Stimulation Solution and the fluorescence signal was read for 15 minutes. […] Chloride transport was then expressed as a percentage of the chloride transport following treatment with 1 μM (14S)-8-[3-(2-{Dispiro[2.0.2.1]heptan-7-yl}ethoxy)-1H-pyrazol-1-yl]-12,12-dimethyl-2λ^6-thia-3,9,11,18,23-pentaazatetracyclo[17.3.1.111,14.05,10]tetracosa-1(22),5,7,9,19(23),20-hexaene-2,2,4-trione, 3 μM (R)-1-(2,2-difluorobenzo[d][1,3]dioxol-5-yl)-N-(1-(2,3-dihydroxypropyl)-6-fluoro-2-(1-hydroxy-2-methylpropan-2-yl)-1H-indol-5-yl)cyclopropanecarboxamide and 300 nM acute N-[2,4-bis(1,1-dimethylethyl)-5-hydroxyphenyl]-1,4-dihydro-4-oxoquinoline-3-carboxamide triple combination control (% Activity).

Row | Ent. B Max Activity [2] | EC50 [2] [nM] | Structure (SMILES) | further results
1 |  |  | COC(=O)C1CC2(C1)CC(N1C(=O)c3cccc(c3)S(=O)(=O)Nc3nc(cc(-c4c(C)cccc4C)n3)CC[C@H]1CC(C)(C)C)C2 (stereo partly shown) | ring closure, yield after HPLC ([1]; from COC(=O)C1CC2(CC(N[C@@H](CCc3cc(-c4c(C)cccc4C)nc(NS(=O)(=O)c4cccc(C(=O)O)c4)n3)CC(C)(C)C)C2)C1, amide bond, CDMT/NMM, DMF, 48.6 mM, 18.0 h): 80%
2 |  |  | COc1c2nc(nc1-c1c(C)cccc1C)NS(=O)(=O)c1cccc(c1)C(=O)N(Cc1cncc(N(C)C3CCC3)n1)[C@H](CC(C)(C)C)CC2 | ring closure, yield after HPLC ([1]; from COc1c(CC[C@@H](CC(C)(C)C)NCc2cncc(N(C)C3CCC3)n2)nc(NS(=O)(=O)c2cccc(C(=O)O)c2)nc1-c1c(C)cccc1C, amide bond, CDMT/NMM, DMF, 13.3 mM, 72.5 h): 33%
3 |  |  | Cc1cccc(C)c1-c1cc2nc(n1)NS(=O)(=O)c1cccc(c1)C(=O)N1Cc3cc(C(C)(C)C)ccc3[C@@H](O2)[C@H]1CC(C)C | ring closure, yield after HPLC ([1]; from Cc1cccc(C)c1-c1cc(O[C@@H]2c3ccc(C(C)(C)C)cc3CN[C@@H]2CC(C)C)nc(NS(=O)(=O)c2cccc(C(=O)O)c2)n1, amide bond, HATU/NaOtBu, THF/DMF, 25.0 °C, 3 steps): 1%
4 |  |  | Cc1cccc(C)c1-c1cc2nc(n1)NS(=O)(=O)c1cccc(c1)C(=O)N1Cc3cc(C(C)(C)C)ccc3[C@H](O2)[C@H]1CC(C)C | ring closure, yield after HPLC ([1]; from Cc1cccc(C)c1-c1cc(O[C@H]2c3ccc(C(C)(C)C)cc3CN[C@@H]2CC(C)C)nc(NS(=O)(=O)c2cccc(C(=O)O)c2)n1, amide bond, HATU/NaOtBu, THF/DMF, 80.1 mM, 25.0 °C, 3 steps): 27%
5 |  |  | Cc1cccc(C)c1-c1cc2nc(n1)NS(=O)(=O)c1cccc(c1)C(=O)O[C@H]1c3ccc(C(C)(C)C)cc3CN2[C@@H]1CC(C)C | ring closure, yield after HPLC ([1]; from Cc1cccc(C)c1-c1cc(N2Cc3cc(C(C)(C)C)ccc3[C@H](O)[C@H]2CC(C)C)nc(NS(=O)(=O)c2cccc(C(=O)O)c2)n1, ester bond, HATU/NaOtBu, THF/DMF, 25.0 °C, 3 steps): 4%
6 |  |  | Cc1cccc(C)c1-c1nc2nc(c1C)OCCNC(=O)c1cccc(c1)S(=O)(=O)N2 | ring closure, yield after HPLC ([1]; from Cc1cccc(C)c1-c1nc(NS(=O)(=O)c2cccc(C(=O)O)c2)nc(OCCN)c1C, amide bond, HATU/DIEA, DMF, 50.7 mM, 25.0 °C): 23%
7 | +++ (+++ is >60%) | < 1000 | Cc1cccc(C)c1-c1cc2cc(n1)NS(=O)(=O)c1cccc(c1)C(=O)N(C1CC3(CC3)C1)[C@H](CC(C)C)CC2 [Compound 3, (11S)-6-(2,6-Dimethylphenyl)-11-isobutyl-2,2-dioxo-12-spiro[2.3]hexan-5-yl-2 λ6-thia-3,5,12-triazatricyclo[12.3.1.14,8]nonadeca-1(18),4(19),5,7,14,16-hexaen-13-one] | ring closure, yield after HPLC ([1]; from Cc1cccc(C)c1-c1cc(CC[C@@H](CC(C)C)NC2CC3(CC3)C2)cc(NS(=O)(=O)c2cccc(C(=O)O)c2)n1, amide bond, HATU/DIEA, DMF, 26.7 mM, 25.0 °C, 0.25 h): 19%
8 | +++ (+++ is >60%) | < 1000 | Cc1cccc(C)c1-c1nc2nc(c1F)CC[C@@H](CC(C)C)N(C1CC3(CC3)C1)C(=O)c1cccc(c1)S(=O)(=O)N2 [Compound 4, (11S)-6-(2,6-Dimethylphenyl)-7-fluoro-11-isobutyl-2,2-dioxo-12-spiro[2.3]hexan-5-yl-2 λ6-thia-3,5,12,19-tetrazatricyclo[12.3.1.14,8]nonadeca-1(18),4(19),5,7,14,16-hexaen-13-one] | ring closure, yield after HPLC ([1]; from Cc1cccc(C)c1-c1nc(NS(=O)(=O)c2cccc(C(=O)O)c2)nc(CC[C@@H](CC(C)C)NC2CC3(CC3)C2)c1F, amide bond, HATU/DIEA, NMP, 100.9 mM, 25.0 °C, 20.0 h): 30%
9 | +++ (+++ is >60%) | < 1000 | COCCN1CCC2(CC1)CC(N1C(=O)c3cccc(c3)S(=O)(=O)Nc3nc(cc(-c4c(C)cccc4C)n3)CC[C@H]1CC(C)C)C2 [Compound 9, (11S)-6-(2,6-Dimethylphenyl)-11-isobutyl-12-[7-(2-methoxyethyl)-7-azaspiro[3.5]nonan-2-yl]-2,2-dioxo-2λ6-thia-3,5,12,19-tetrazatricyclo[12.3.1.14,8]nonadeca-1(18),4(19),5,7,14,16-hexaen-13-one] | 
10 | +++ (+++ is >60%) | 1000 to 3000 | Cc1cccc(C)c1-c1cc2nc(n1)NS(=O)(=O)c1cccc(c1)C(=O)N(CCCC(C)(C)O)CCC2C (stereo not shown) [Compound 10, 6-(2,6-Dimethylphenyl)-12-(4-hydroxy-4-methyl-pentyl)-9-methyl-2,2-dioxo-2λ6-thia-3,5,12,19-tetrazatricyclo[12.3.1.14,8]nonadeca-1(18),4(19),5,7,14,16-hexaen-13-one] | 
11 | +++ (+++ is >60%) | < 1000 | Cc1cccc(C)c1-c1cc2nc(n1)NS(=O)(=O)c1cccc(c1)C(=O)N[C@H](CC(C)C)CC2 [Compound 14] | 
12 | ++ (++ is 30-60%) | < 1000 | Cc1cccc(C)c1-c1cc2nc(n1)NS(=O)(=O)c1cccc(n1)C(=O)N(C1CC3(CC3)C1)[C@H](CC(C)C)CC2 [Compound 15] | 
13 | +++ (+++ is >60%) | < 1000 | Cc1cccc(C)c1-c1cc2nc(n1)NS(=O)(=O)c1cccc(c1)C(=O)N(Cc1ccc(C(C)(C)O)cc1)CCC2C (stereo not shown) [Compound 16] | 
14 | +++ (+++ is >60%) | 1000 to 3000 | Cc1cccc(C)c1-c1cc2nc(n1)NS(=O)(=O)c1cccc(c1)C(=O)N(C)CCC2C (stereo not shown) [Compound 17] | 
15 | +++ (+++ is >60%) | 1000 to 3000 | Cc1cccc(C)c1-c1cc2nc(n1)NS(=O)(=O)c1cccc(c1)C(=O)N(Cc1ncccn1)CCC2C (stereo not shown) [Compound 18] | 
16 | ++ (++ is 30-60%) | < 1000 | Cc1cccc(C)c1-c1cc2nc(n1)NS(=O)(=O)c1cccc(c1)C(=O)N(C1CC3(CC3)C1)CCC2c1ccc(C(C)(C)C)cc1 (stereo not shown) [Compound 19] | 
17 | ++ (++ is 30-60%) | < 1000 | Cc1cccc(C)c1-c1cc2nc(n1)NS(=O)(=O)c1cccc(c1)C(=O)N(C1CC3(CC3)C1)CC2Cc1ccc(C(C)(C)C)cc1 (stereo not shown) [Compound 20] | 
18 | ++ (++ is 30-60%) | < 1000 | Cc1cccc(C)c1-c1cc2nc(n1)NS(=O)(=O)c1cccc(c1)C(=O)N(C1CC3(CC3)C1)CC[C@H]2c1ccc(C(C)(C)C)cc1 [Compound 22] | 
19 | ++ (++ is 30-60%) |  | Cc1cccc(C)c1-c1cc2nc(n1)NS(=O)(=O)c1cccc(c1)C(=O)N(C1CC3(CC3)C1)CC[C@H]2c1ccc(C(C)(C)C)cc1 [Compound 23] | 
20 | + (+ is <30%) |  | Cc1cccc(C)c1-c1cc2nc(n1)NS(=O)(=O)c1cccc(c1)C(=O)OC[C@@H](CC(C)(C)C)N2c1ccnn1C [Compound 29] | 
21 | + (+ is <30%) |  | Cc1cccc(C)c1-c1cc2nc(n1)NS(=O)(=O)c1cccc(c1)C(=O)OC[C@@H](CC(C)(C)C)N2Cc1nccc(C(F)(F)F)n1 [Compound 32] | 
22 | ++ (++ is 30-60%) | < 1000 | Cc1cccc(C)c1-c1cc2nc(n1)NS(=O)(=O)c1cccc(c1)C(=O)N(C1CC3(CC3)C1)CCC21CC1 [Compound 41, 6-(2,6-Dimethylphenyl)-2,2-dioxo-12-spiro[2.3]hexan-5-yl-spiro[2λ6-thia-3,5,12,19-tetrazatricyclo[12.3.1.14,8]nonadeca-1(18),4(19),5,7,14,16-hexaene-9,1′-cyclopropane]-13-one] | 
